The test system of series [1] is SARS-CoV-2. To be noted: Vero E6 cells; cited from earlier work.
Series [2] is described as follows: Cytotoxicity assay (alamarBlue) on Huh-7.5 cells. To be noted: human, CC50, Huh-7.5 cells, alamarBlue reduction.
Another series relates to Huh-7.5 cells. Nature of the series: Cytotoxicity assay (alamarBlue) on Huh-7.5 cells. To be noted: Huh-7.5 cells, alamarBlue reduction.
Series [3] concerns SARS-CoV-2. The series can be described thus: Time of addition (pre-treatment) experiment in Huh-7.5 cells, plaque assay. The class given is cell-based. To be noted: Huh-7.5, pretreatment.
The test system of series [4] is SARS-CoV-2. Nature of the series: microbe, parasite or virus in culture. The class given is cell-based. To be noted: for EC50: Severe acute respiratory syndrome coronavirus 2, Huh7.5, 24 h.
For series [5], the target named is T1, SARS-CoV-2 Mpro (Severe acute respiratory syndrome coronavirus 2, UniProt P0DTC1). The series can be described thus: biochemical. The procedure: A cleavage site is indicated by an asterisk. […] N = 3, values are represented as mean ± SE.
For the determination of half-maximal inhibitory concentrations (IC50) of MG-101 and GC376 (BPS Bioscience), a synthetic substrate of Mpro containing FRET pair and Mpro nsp4/5 cleavage site (indicated by an arrow, Dabcyl-KTSAVLQ ↓ SGFRKME-Edans) (BPS Bioscience) was used for the FRET-based cleavage assay. The assay was performed in 96-well, black, flat-bottomed microtiter plates (Greiner Bio-One, Germany) with a final volume of 50 μl. Mpro (a final concentration of 200 nM) was pre-incubated for 1 h at 22 °C with compounds at different concentrations in the assay buffer (20 mM HEPES (pH 7), 0.5 mM EDTA, 1 mM dithiothreitol, 5% glycerol). The substrate was then added at a final concentration of 10 μM to the reaction mixture and the reaction was incubated for 4 h at 22 °C. The readings for the different concentrations of the inhibitor compounds incubated with the substrate without Mpro were measured as a blank. The fluorescence signals (excitation/emission, 360 nm/460 nm) of released EDANS were measured using Infinite 200 PRO multimode plate reader (Tecan, USA). The results were plotted as dose inhibition curves using nonlinear regression with a variable slope to determine the IC50 values of inhibitor compounds using GraphPad Prism 9.0.

Series [6] deals with T1, SARS-CoV-2 Mpro. The series can be described thus: In-cell protease (ICP) assay, Mpro construct in HEK293T cells. It is filed as cell-based. To be noted: HEK-293T; for remaining activity at 1 µM: read-out: mEmerald-NLS nuclear/total fluorescence (protease activity) normalized to untreated cells, 1 μM, HEK293T, Fig 2A replicate data, untreated control = 100; for remaining activity at 10 µM: read-out: mEmerald-NLS nuclear/total fluorescence (protease activity) normalized to untreated cells, 10 μM, HEK293T, Fig 2A replicate data, untreated control = 100.

Another series deals with HEK293T cells. The series can be described thus: Cell viability (alamarBlue) on HEK293T cells. To be noted: replicate data, listed as Lycorine hydrochloride.
Series [7] relates to SARS-CoV-2. The class given is cell-based. To be noted: Huh-7.5, MOI 0.1, 24 h.p.i., anti-N IFA.
A further series has as its system SARS-CoV. To be noted: Vero E6 cells; cited from earlier work.
Another series can be described thus: in vitro. To be noted: human, CC50, Huh-7.5 cells, alamarBlue reduction.
In the next series the target is SARS-CoV-2 PLpro (Severe acute respiratory syndrome coronavirus 2, UniProt P0DTC1). Nature of the series: cell-based. To be noted: HEK-293T.
Another series concerns Mpro. To be noted: thermal shift assay as worded; cited from earlier work.

Each structure is given as a SMILES string. Where “and” joins values, the source holds several entries; their conditions need not be identical. Equal values may be shown once. Where a name gives a salt, the structure may show the parent alone. Read-outs that look alike come from different tables or passages of the source. Non-standard residues stand in square brackets, D forms with d. Residues, ends and D or L forms follow the SMILES beside them. Nle = CCCC[C@H](N)C(=O)O

Take `O[C@H]1[C@H]2c3cc4c(cc3CN3CCC(=C[C@@H]1O)[C@H]23)OCO4` [Lycorine HCl]: the 50% effective concentration (EC50) with SARS-CoV-2 [1] was 0.3 µM; with SARS-CoV-2 [4] it was 0.01 µM; in the series with SARS-CoV it was 0.016 µM. In [2], this compound registered a half-maximal cytotoxic concentration (CC50) at 24 h of 18.8 µM. The same compound yielded a CC50 in the series with Huh-7.5 cells of 19 µM. Also, the “effect of pre-treatment on virus production / entry” value in the series with SARS-CoV-2 [3] is given as “only minimal effect on virus production”. Besides, in the series with SARS-CoV-2 [4] (Huh-7.5 cells), the “Selectivity index SI = CC50/EC50” value was 1878. The “inhibition of Mpro protease activity” value on SARS-CoV-2 Mpro [5] (FRET assay) is recorded as “not found to be effectively inhibiting the Mpro protease activity”. In addition, the remaining activity at 1 µM at SARS-CoV-2 Mpro [6] worked out at 43%. Besides, at SARS-CoV-2 Mpro [6], the remaining activity at 10 µM came out at 25%. For the same compound, in the series on HEK293T cells, the “% normalised alamar Blue reduction at 10μM” value is 76% and 65% and 69.32%. Besides, the “inhibition of virus spread compared to untreated controls” value in the series on SARS-CoV-2 [7] amounted to 88%.
`CCCC[C@@H](C=O)NC(=O)[C@H](CC(C)C)NC(=O)[C@H](CC(C)C)NC(C)=O` [MG-101] (Ac-Leu-Leu-[Nle]-aldehyde) gave a CC50 at 24 h in the series “in vitro” of 37 µM. In addition, the “effect of pre-treatment on virus production / entry” value with SARS-CoV-2 [3] is “affect the virus entry”. Further, the “reduction in virus titer on pretreatment of cells” value with SARS-CoV-2 [3] came out at 1 log. In the series on SARS-CoV-2 [4], this compound registered an EC50 of 0.038 µM. Further, the “virus titer at 24 h.p.i., Fig 6A data” value with SARS-CoV-2 [4] (single drug 1 μM, Huh 7.5, replicates) was 48000 and 56000 and 44000. Besides, the IC50 was 2.89 ± 0.86 µM on SARS-CoV-2 Mpro [5] (Mpro 200 nM, substrate 10 μM, 1 h pre-incubation, read-out: IC50) and 8.6 µM with Mpro. Moreover, the remaining activity at 1 µM on SARS-CoV-2 Mpro [6] amounted to 22%; at SARS-CoV-2 PLpro (read-out: mEmerald-NLS nuclear/total fluorescence (protease activity) normalized to untreated cells, 1 μM, HEK293T, Fig 2A replicate data, untreated control = 100), 68%. The remaining activity at 10 µM at SARS-CoV-2 Mpro [6] came to 8.9%; at SARS-CoV-2 PLpro (read-out: mEmerald-NLS nuclear/total fluorescence (protease activity) normalized to untreated cells, 10 μM, HEK293T, Fig 2A replicate data, untreated control = 100), 70%. The “inhibition of virus spread compared to untreated controls” value with SARS-CoV-2 [7] was found to be 95%.
